Earlier results on 3 molecules are cited in patent publication US4693997A, “Novel pharmaceutical composition” (priority 1982, dated 1987).

Where a name gives a salt, the structure may show the parent alone. Read-outs that look alike come from different tables or passages of the source.

The data set deals with mucosa in the oesophagus. As to conditions: oral tablets.
Where [1] appears, read: compared with emepronium bromide tablets.

For `CC(C)NCC(O)COc1cccc2ccccc12` (stereo not drawn) [propranolol hydrochloride], the “oesophageal irritation and ulceration” value under setting [1] was “same type of irritation and ulceration”. Regarding `CC[N+](C)(C)C(C)CC(c1ccccc1)c1ccccc1` (stereo not drawn) [emepronium bromide], the “oesophageal irritation and ulceration” value (Bennett, Lancet 1977, 1, 810) is “severe irritation and ulceration in the oesophagus”.

As for `CC1c2cccc(O)c2C(=O)C2=C(O)C3(O)C(=O)C(C(N)=O)=C(O)C(N(C)C)C3C(O)C21` (stereo not drawn) [doxycycline hydrochloride], under setting [1], the “oesophageal irritation and ulceration” value was “same type of irritation and ulceration”.
